Test results from the NIST ThermoML archive (doi:10.1016/j.fluid.2008.02.018).
“And” between values parts separate entries of the source, which are not always exact repeats. Equal entries are not always repeated. ± gives the expanded uncertainty stated by the source.

Columns and labels:
[1] = Liquid; for mass density: 101.33 kPa
[2] = refractive index (Na D-line) (dimensionless); conditions: 298.15 K; 101.33 kPa; Liquid; Standard Abbe refractometry

| SMILES | mass density ([1]; 298.15 K) | vapor or sublimation pressure ([1]; 298.15 K) | vapor or sublimation pressure ([1]; 308.15 K) | vapor or sublimation pressure ([1]; 318.15 K) | refractive index [2] |
| --- | --- | --- | --- | --- | --- |
| ClCCCl [1,2-dichloroethane] | 1250.9 ± 1.7 kg/m3 | 10.81 ± 0.23 kPa | 17.02 ± 0.31 kPa | 25.77 ± 0.42 kPa | 1.4421 ± 0.0007 |
| O=C1CCCCC1 [cyclohexanone] | 943 ± 1.2 kg/m3 | 0.64 ± 0.06 kPa | 1.15 ± 0.08 kPa | 1.91 ± 0.09 kPa | 1.4482 ± 0.0007 |
| O=C1CCCC1 [cyclopentanone] | 945.3 ± 1.2 kg/m3 | 1.72 ± 0.09 kPa | 2.8 ± 0.1 kPa | 4.64 ± 0.13 kPa | 1.4347 ± 0.0007 |
| ClC(Cl)Cl [trichloromethane] | 1475.9 ± 2.1 kg/m3 | 26.44 ± 0.48 kPa | 40.19 ± 0.65 kPa | 58.69 ± 0.87 kPa and 58.68 ± 0.87 kPa | 1.4428 ± 0.0007 |
